Experimental findings from the supplement of paper PMC10307832 are described below.

What all share (experiment): relative viability (nuclei count vs DMSO), 5 days (fraction); higher = more cells survive
Compound in experiment [1]: COC1=CC=C(C=C1)CN2C=CC3=C2C=C(C=C3)C(=O)NO + CC(C)C[C@H](NC(=O)[C@H](Cc1ccccc1)NC(=O)c1cnccn1)B(O)O [Bortezomib] (partner 0.002 µM)
A digest of the protocol: (§1)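 After 5 days of treatment, lung cancer cells in 1536-well plates were fixed and stained in a single step (final 0.05% Triton X-100, 1% formaldehyde, 1 ug/ml Hoechst) and their nuclei counted on 4× images. Treatment had been applied by pin tool the day after seeding as one drug alone or as a fixed anchor-drug dose with five library-drug doses (not always all listed) in √10 steps. Relative viability is the nuclei count of treated wells divided by that of vehicle wells, and values are medians of duplicate plates.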

Compound in experiment [2]: COC1=CC=C(C=C1)CN2C=CC3=C2C=C(C=C3)C(=O)NO + N=C(N)NC(=N)NCCc1ccccc1 [Phenformin] (partner 250 µM)
A digest of the protocol: as §1

Compound in experiment [3]: COC1=CC=C(C=C1)CN2C=CC3=C2C=C(C=C3)C(=O)NO + COc1cccc2cc(-c3nc([C@H]4CC[C@H](C(=O)O)CC4)n4ncnc(N)c34)[nH]c12 [OSI-027] (partner 0.5 µM)
A digest of the protocol: as §1

Compound in the experiment “Veliparib + Foretinib”: C[C@]1(c2nc3c(C(N)=O)cccc3[nH]2)CCCN1 [Veliparib] + COc1cc2c(Oc3ccc(NC(=O)C4(C(=O)Nc5ccc(F)cc5)CC4)cc3F)ccnc2cc1OCCCN1CCOCC1 [Foretinib] (partner 0.25 µM)
A digest of the protocol:
as §1

SW 1573: the relative viability in experiment [1] (first compound 0.253 µM) was determined as 1.18; in experiment [1] (first compound 0.8 µM) it was 1.15; in experiment [1] (first compound 2.53 µM), 1.13; in experiment [1] (first compound 8 µM), 0.906; in experiment [2] (first compound 0.253 µM) it was 0.368; in experiment [2] (first compound 0.8 µM), 0.426. For the same cell line, the relative viability in experiment [2] (first compound 2.53 µM) was 0.379; in experiment [2] (first compound 8 µM), 0.331; in experiment [3] (first compound 0.253 µM), 0.616; in experiment [3] (first compound 0.8 µM), 0.785; in experiment [3] (first compound 2.53 µM), 0.519; in experiment [3] (first compound 8 µM), 0.396. Also, the relative viability in the experiment with Veliparib + Foretinib (first compound 0.02 µM) was 0.881; with Veliparib + Foretinib (first compound 0.06325 µM), 0.771; with Veliparib + Foretinib (first compound 0.2 µM) it was 0.99; with Veliparib + Foretinib (first compound 0.6325 µM), 0.828; with Veliparib + Foretinib (first compound 2 µM) it was 0.941.
